The structures appear in SMILES notation.

The test system of the assay is E. Coli B. The experiment in a line: Antimicrobial sensitivity test by resistance signature (pulsed-voltage sampling). Format: cell-based. The following applies: 0.9 mL of 10^3 CFU/mL E. Coli B in LB Broth + 0.1 mL antibiotic, room temperature; control slope remains negative; FIGS. 7A-7D. How it is done:
FIGS. 7A-7D depict signatures of microbial sample of 0.9 mL of a concentration of 10^3 CFU/mL of two-hour E. Coli B treated with 0.1 mL of antibiotics or antimicrobials and control samples in the absence thereof. What is common to all FIGS. 7A-7D is the slope for signatures with antibiotics or antimicrobials become positive, i.e., the resistance of the microbial sample increases, upon addition of the antibiotic or antimicrobial. The slope of the control samples remains negative.
In further detail, a difference in the degree of the slope change for the signature can be observed. Such differences are due to the type of antibiotic or antimicrobial, and its mechanism of action. For example, sulfamethoxazole, FIG. 7C, causes inhibition of DNA synthesis in the cell, thereby aiming essential cell functions. In contrast, azithromycin, FIG. 7B, inhibits […] in a bacterium, thereby acting on latent cell functions.
An overnight bacterial culture of E. coli B with a concentration of around 10^9 cells which had attained room temperature were diluted using LB Broth which had also attained room temperature to a final concentration of 10^3 cells. 0.9 ml of this solution was then placed into one sensor well which was connected to lead #1 of a reader unit. An additional 0.9 ml of the bacteria was placed into a second sensor well which was connected to lead #2 of a reader unit. […]

As for `Cc1cc(NS(=O)(=O)c2ccc(N)cc2)no1` [sulfamethoxazole], the “slope of the resistance signature upon addition of the antibiotic or antimicrobial” value is “steeper than for azithromycin”.

The record behind these values is US20130183459A1, “DEVICE AND METHOD FOR I[…] AND COUNTING MICROBES AND DETERMINING ANTIMICROBIAL SENSITIVITY” (priority 2011, published 2013).
